Source: patent US8536115B2, “Compositions and methods for modulating AMPA receptor-mediated excitotoxicity” (Centre for Addiction and Mental Health, priority 2006, dated 2013)
No end group written: not given here.

How the values were obtained:
[1] = system: HEK-293T cells expressing GluR1/2; assay: Quantification of AMPAR-mediated cell death (propidium iodide fluorescence) in HEK-293T cells expressing GluR1/2; format: cell-based; conditions: for attenuation/inhibition of AMPAR-mediated (glutamate-induced) cell death: pretreatment 10 μM, 1 hr, 300 μM glutamate, 25 μM CTZ, 24 hr, n=9
Procedure: (§1) Cells were allowed to recover for 24 hours at 37° C. To quantify AMPA-mediated cell death, culture medium was replaced by extracellular solution containing 50 μg/ml of propidium iodide (PI) (Invitrogen). After 30 minutes incubation at 37° C., fluorescence intensity in each well was measured with a plate reader (Victor3; PerkinElmer). […] Primary hippocampal neurons were exposed to 100 μM KA/25 μM cyclothiazide in medium at 37° C. for 1 hour, at 37° C.

[2] = system: HEK-293T cells expressing GluR1/3; assay: GluR1/3 AMPAR-mediated cell death in HEK-293T cells; format: cell-based; conditions: pre-incubation; HEK-293T expressing GluR1/3
Procedure: as §1

[3] = biological target: T1, GAPDH:AMPAR complex (Homo sapiens, UniProt P04406); assay: Co-immunoprecipitation of GAPDH with GluR2 in HEK-293T cells expressing GluR1/GluR2; format: cell-based
T1 construct: It should be noted that HEK293T cells expresses endogenous GAPDH; expressed in transfected cells; host or cells: HEK-293T (GluR1 and GluR2 transfected; GAPDH endogenous)
T1 sequence (P04406 2-335 limits assumed, one chain of several): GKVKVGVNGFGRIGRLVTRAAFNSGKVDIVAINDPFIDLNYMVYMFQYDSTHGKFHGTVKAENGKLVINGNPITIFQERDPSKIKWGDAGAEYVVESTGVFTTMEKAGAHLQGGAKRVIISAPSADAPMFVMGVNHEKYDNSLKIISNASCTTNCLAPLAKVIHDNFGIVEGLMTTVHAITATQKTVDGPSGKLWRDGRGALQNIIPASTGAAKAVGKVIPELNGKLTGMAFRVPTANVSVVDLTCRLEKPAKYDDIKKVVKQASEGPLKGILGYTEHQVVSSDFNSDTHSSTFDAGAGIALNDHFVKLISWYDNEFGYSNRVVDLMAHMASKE
Procedure: (§2) Protein affinity purification, in vitro binding, co-immunoprecipitation and Western blot analyses were performed as previously described (73, 79). Antibodies used for immunoprecipitation, Western blots and cell surface ELISA assays included GAPDH (polyclonal from Abcam, monoclonal from Chemicon), GluR2 (Western blots: Chemicon; immunoprecipitation: Upstate), HA (monoclonal, Covance), α-tubulin (monoclonal, Sigma-Aldrich), LaminB1 (Zymed Laboratories).

[4] = system: cultured rat hippocampal neurons; assay: AMPAR-mediated cell death (PI fluorescence) in cultured rat hippocampal neurons; format: cell-based; conditions: 100 μM KA, 10 μM MK-801, 2 μM nimodipine, 1 hr; n=9
Procedure: (§3) Primary cultures from hippocampus were prepared from fetal Wistar rats (embryonic day 17-19) on Cell^+ (Sarstedt) culture dishes as previously described (73). The cultures were used for experiments on 12-15 d after plating. Hippocampal cultures were pretreated with GluR2 NT1-3-2 peptides before kainic acid treatment.
Cells were allowed to recover for 24 hours at 37° C. To quantify AMPA-mediated cell death, culture medium was replaced by extracellular solution containing 50 μg/ml of propidium iodide (PI) (Invitrogen). After 30 minutes incubation at 37° C., fluorescence intensity in each well was measured with a plate reader (Victor3; PerkinElmer). […]
To examine the GAPDH:AMPAR interactions in a relevant cellular milieu, primary cultures of rat hippocampal neurons were utilized in parallel experiments. We have previously shown in FIG. 21C that pre-incubating hippocampal neurons with the GluR2 NT1-3-2 peptide could disrupt the GAPDH-GluR2 interaction that was promoted by AMPAR activation. We subsequently examined if disruption of this interaction in hippocampal neurons could rescue cells from AMPAR-mediated cell death. AMPAR-mediated cell death was induced by pretreating neurons with kainic acid (KA; 100 μM, 1 hour) in the presence of NMDA receptor and Ca^2+ channel antagonists (10 μM MK-801 and 2 μM nimodipine, respectively).

[5] = system: nontransfected HEK-293T cells; assay: Cell death in HEK-293T cells in the absence of GluR1/GluR2 co-expression; format: cell-based
Procedure: as §1

[6] = system: transfected HEK-293T cells; assay: Cell-ELISA of cell surface GluR2 and GAPDH in transfected HEK-293T cells; format: cell-based; conditions: GluR1/GluR2; glutamate
Procedure: Cell-ELISA assays (colorimetric assays) were done essentially as previously described (82). […] Cells were incubated in 1% (W/V) glycine for 10 minutes at 4° C. to recover from the fixing. Cells were then incubated with a monoclonal antibody against specific antibodies for the purpose of labeling the receptors or proteins on the cell surface under non-permeabilized conditions or the entire receptor pool under permeabilized conditions. After incubation with corresponding HRP-conjugated secondary antibodies (Sigma-Aldrich), the HRP substrate o-phenylenediamine (Sigma-Aldrich Co) was added to produce a color reaction that was stopped with the equal volume of 3N HCl. Fluorescence intensity in each well was measured with a plate reader (Victor3; PerkinElmer). […] Afterwards, cells were scrapped from the dishes, and the protein concentration of each dish was measured. The results of cell surface expression of receptors or proteins were calibrated by the protein concentration of each well. Analysis was done using at least 9 separate wells in each group.

[7] = biological target: T2, GAPDH:AMPAR complex (Rattus norvegicus, UniProt P04797); assay: Co-immunoprecipitation of GAPDH with GluR2 in primary cultures of rat hippocampal neurons; format: cell-based; conditions: preincubation 10 μM, 1 hour; 100 μM kainic acid, 30 min
T2 construct: endogenous in cells; host or cells: primary hippocampal neurons from fetal Wistar rats
T2 sequence (P04797 whole entry, one chain of several): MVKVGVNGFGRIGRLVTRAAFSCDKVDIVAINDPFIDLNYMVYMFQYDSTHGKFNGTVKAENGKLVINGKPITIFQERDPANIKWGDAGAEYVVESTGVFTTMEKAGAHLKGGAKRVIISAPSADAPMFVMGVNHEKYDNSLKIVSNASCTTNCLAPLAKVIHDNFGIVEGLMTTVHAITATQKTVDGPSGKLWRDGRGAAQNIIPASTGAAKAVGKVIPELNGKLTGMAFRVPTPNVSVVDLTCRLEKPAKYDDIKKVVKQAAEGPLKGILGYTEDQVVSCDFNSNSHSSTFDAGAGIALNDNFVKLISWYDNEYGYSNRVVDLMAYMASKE
Procedure: as §3, §2

[8] = system: HEK-293T cells cotransfected with GluR1/GluR2; assay: Nuclear translocation of GAPDH and GluR2 in HEK-293T cells (nuclei, Western blot); format: cell-based; conditions: peptide 10 μM, 1 hr; glutamate 100 μM, 30 min
Procedure: as §2
(§4) Nuclei isolation was prepared as described previously (55, 66). Briefly, cells were gently rinsed twice with ice-cold PBS. And scraped in 1 ml of solution 1 (10 mM Tris-HCl, pH7.4, 100 mM NaCl2, 2.5 mM MgCl2, 0.5% NP-40, proteinase inhibitor and PMSF) per 10-cm plate. Then cells were homogenized by four passages through a 25-gauge needle and spin at 3000 g briefly. Pellets containing nuclei were subsequently utilized in biochemical assays.

[9] = system: hippocampal neurons; assay: Nuclear translocation of GAPDH and GluR2 in hippocampal neurons; format: cell-based, rat; conditions: peptide 10 μM, 1 hr; 100 μM KA, 10 μM MK-801, 2 μM nimodipine, 30 min
Procedure: as §3, §2, §4

[10] = system: GAPDH-p53 interaction; assay: Co-immunoprecipitation of GAPDH with p53; format: cell-based; conditions: extracted nuclear proteins; AMPAR activation
Procedure: as §2, §4
(§5) Thus, we tested whether GluR2NT and GAPDH can interact with p53 using affinity “pull down” purification experiments. […] To identify the p53 interacting domain on GAPDH, GST-fusion proteins encoding truncated fragments of GAPDH were constructed and used in affinity purification assays (FIG. 24D). […] Furthermore, we confirmed the essential role of I221-E250 in maintaining GAPDH-p53 coupling.

[11] = system: hippocampal CA1 neurons; assay: Four vessel occlusion ischemia model, cresyl violet-stained nuclei in CA1; format: in vivo, rat; conditions: 1 μM, 0.5 μl into hippocampus, 5-day recirculation
Procedure: In this study, a cannula (small diameter stainless steel tubes) was implanted in the animal one week before surgery. This cannula was used to deliver the peptide GluR2 NT1-3-2 (1 μM, 0.5 μl) into hippocampus where GAPDH-GluR2 interaction is considered to occur. On the surgery day, the four vessel occlusion ischemia model was performed in order to induce ischemia. Animals were treated with the peptide GluR2 NT1-3-2 either before (30 min) or after (2 hour) the induction of ischemia to examine the neuroprotective effect of the peptide. After a 5-day recirculation period, animals were decapitated, the brains were removed and dissected to harvest the hippocampus. Cresyl violet was used to stain alive neurons in hippocampus region of each animal. Cresyl violet-stained nuclei were observed by microscope and total number of stained nuclei in CA 1 region was summarized and normalized to the sham-operated group.

[12] = biological target: T3, GAPDH (Rattus norvegicus, UniProt P04797); assay: Affinity purification of GAPDH from rat hippocampal extracts by GST-fusion proteins; format: binding; conditions: solubilized rat hippocampal extracts
T3 construct: from tissue; host or cells: detergent extracts of rat hippocampus
T3 sequence (P04797 whole entry, the tested form may be a part): as the sequence (P04797 whole entry, one chain of several) above
Procedure: as §2
We then further divided the GluR2 NTa3 region into 30 amino acids GST-fusion proteins and mini-genes (GluR2 NTa3-1: H122-E141, 20 a.a; GluR2 NT1-3-2 Y142-K172, 30 a.a) to delineate the region of GluR2 NTa3 involved in the interactions (FIG. 6A). GluR2 NT1-3-2, but not GluR2 NTa3-1 or GST alone, precipitated GAPDH in rat hippocampal extracts in affinity purification assays (FIG. 6B). This was also supported by a blot overlay experiment where [35S]-GAPDH probe bound with GluR2 NT1-3-2, but not GluR2 NTa3-1 or GST alone (FIG. 6C).

[13] = biological target: T4, [35S]-GAPDH (Homo sapiens, UniProt P04406); assay: In vitro binding (blot overlay) with [35S]-GAPDH probe; conditions: in vitro binding assay
T4 construct: made in house
T4 sequence (P04406 whole entry): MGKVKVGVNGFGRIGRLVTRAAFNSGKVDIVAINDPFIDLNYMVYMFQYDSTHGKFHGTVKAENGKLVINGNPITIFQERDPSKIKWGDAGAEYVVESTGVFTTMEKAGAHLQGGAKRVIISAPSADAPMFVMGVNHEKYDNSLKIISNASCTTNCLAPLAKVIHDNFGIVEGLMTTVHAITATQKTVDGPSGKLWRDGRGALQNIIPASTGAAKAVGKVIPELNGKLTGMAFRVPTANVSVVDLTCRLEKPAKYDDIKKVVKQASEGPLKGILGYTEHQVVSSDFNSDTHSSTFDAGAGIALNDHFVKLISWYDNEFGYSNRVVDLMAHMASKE
Procedure: as §2
In order to delineate the region of the GluR2NT involved in the interaction with the GAPDH, three GluR2NT GST-fusion proteins [GluR2 NTa V22-S271, (250 a.a), GluR2 NTb K272-421, (150 a.a), GluR2 NTc L422-E545, (124 a.a)] were constructed (FIG. 4A). In affinity purification assays, GluR2 NTa, but not GluR2 NTb, GluR2 NTc or GST alone precipitated GAPDH in rat hippocampal brain extract (FIG. 4B). […] To clarify the nature of the interaction, blot overlay experiments were performed, which provided in vitro evidence for a direct interaction. GluR2 NTa, GluR2 NTb and GluR2 NTc were probed with in vitro translated [35S]-methionine labelled peptides encoding GAPDH ([35S]-GAPDH). The [35S]-GAPDH probe bound with GluR2 NTa, but not GluR2 NTb or GluR2 NTc. […]

[14] = biological target: T5, p53 (Rattus norvegicus, UniProt P10361); assay: Affinity pull down of p53 from rat hippocampal extracts by GST-GAPDH fragments; format: binding
T5 construct: from tissue; host or cells: solubilized nuclear proteins / extracts of rat hippocampus
T5 sequence (P10361 whole entry, the tested form may be a part): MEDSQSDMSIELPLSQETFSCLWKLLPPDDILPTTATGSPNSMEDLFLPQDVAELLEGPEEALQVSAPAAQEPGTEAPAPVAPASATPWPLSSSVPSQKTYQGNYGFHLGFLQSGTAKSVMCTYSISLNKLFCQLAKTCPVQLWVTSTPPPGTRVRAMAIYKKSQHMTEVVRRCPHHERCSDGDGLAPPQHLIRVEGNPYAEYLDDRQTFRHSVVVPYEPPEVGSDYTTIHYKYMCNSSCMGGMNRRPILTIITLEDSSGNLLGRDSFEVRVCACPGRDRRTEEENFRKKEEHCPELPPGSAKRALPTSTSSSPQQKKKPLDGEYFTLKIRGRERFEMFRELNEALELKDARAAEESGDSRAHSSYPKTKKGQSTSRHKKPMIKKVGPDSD
Procedure: as §2, §5

[15] = system: HEK-293T cells expressing NR1-1a/2A NMDA receptor; assay: NR1-1a/2A NMDA receptor-mediated cell death in HEK-293T cells; format: cell-based; conditions: depletion of calcium with 5 mM EGTA; n=9

In the case of `Cc1ccc(-c2cn3c4c(sc3n2)CCCC4)cc1` [cyclic PFT-α, reference compound], the “attenuation/inhibition of AMPAR-mediated (glutamate-induced) cell death” value [1] is reported as 49.8±8.3% and the “inhibition of GluR1/3 AMPAR-mediated (glutamate-induced) cell death” value [2] is reported as “failed to inhibit”.

`N[C@@H](CCC(=O)O)C(=O)O` [Glutamate] was tested, and the “CO-IP of GAPDH by the GluR2 subunit antibody on agonist activation” value [3] was “increase”.

With `N#Cc1cc2c(cc1[N+](=O)[O-])=NC(=O)C(=O)N=2` [CNQX, 6-cyano-7-nitroquinoxaline-2,3-dione] the “association between GAPDH and GluR2 with antagonist” value ([3]; glutamate-activated AMPA receptor) was “decreased”.

With “GluR2 NT1-3-2 peptide: polypeptide of the GluR2 NT1-3-2 (Y142-K172) amino acid sequence (SEQ ID NO:1) (YYQWDKFAYLYDSDRGLSTLQAVLDSAAEKK; Y142-K172 of GluR2 subunit receptor from homo sapiens)” the “effect of the peptide itself on cell death in the absence of glutamate treatment” value ([1]; GluR1/2 transfected cells, no glutamate) was “no effect”, the “attenuation/inhibition of AMPAR-mediated (glutamate-induced) cell death” value [1] was 56±1.6% and the “inhibition of AMPAR-mediated cell death” value [4] was 47.6±3.3%. For the same compound, the “inhibition of GluR1/3 AMPAR-mediated (glutamate-induced) cell death” value [2] was “failed to inhibit”, the “effect of the peptide itself in the absence of GluR1/GluR2 co-expression” value [5] was “no effect” and the “agonist-induced GAPDH internalization after preincubation of peptide” value [6] was “abolished”. The “agonist-induced increase in GAPDH:AMPAR complex formation” value ([3]; preincubation 10 μM, 1 hour, 100 μM glutamate, 30 min) was “significantly inhibited”, the “agonist-induced increase in GAPDH:AMPAR complex formation” value [7] was “significantly inhibited” and the “nuclear translocation of GAPDH and GluR2” value [8] was “blocked”. For the same compound, the “nuclear translocation of GAPDH and GluR2” value [9] was “blocked”, the “GAPDH-p53 interaction after peptide pretreatment” value [10] was “inhibited” and the “neurons rescued from cell death, peptide treatment before ischemia” value ([11]; 30 min before ischemia) was 18.2%. The “neurons rescued from cell death, peptide treatment after ischemia” value ([11]; 2 hour after ischemia) was 13.2%.

“GST-GluR2 NT1-3-2: GST-fusion protein of GluR2 NT1-3-2 Y142-K172 (YYQWDKFAYLYDSDRGLSTLQAVLDSAAEKK; not fully specified (N-terminus); also: GST fusion partner)” was tested, and the “affinity precipitation of GAPDH (Western blot)” value [12] was “presence of GAPDH” and the “binding of [35S]-GAPDH probe” value [13] was “bound”.

“GST-GAPDH(2-2-1-1): GST-fusion protein encoding truncated GAPDH fragment I221-E250” was tested, and the “pull down of p53” value [14] was “specifically pulled down”.

With `O=C(O)CN(CCOCCOCCN(CC(=O)O)CC(=O)O)CC(=O)O` [EGTA, reference compound] the “GluR1/GluR2 AMPAR-mediated cell death on depletion of calcium” value ([1]; 5 mM EGTA) was “remained intact” and the “inhibition of NR1-1a/2A NMDA receptor-mediated cell death” value [15] was 38±3.6%.
